Measurements as given in patent US9815883B2, “Inhibiting peptides derived from TREM-like transcript 1 (TLT-1) and uses thereof” (Institut National de la Sante et de la Recherche Medicale …, priority 2010, dated 2017).
Values belong to the molecule of their own block, whether it stands above or below them.

Experiments:
[1] = system: male Balb/c mice; test: Caecal ligation and puncture (CLP) polymicrobial sepsis model; type: in vivo, mouse; settings: heading only; evaluation without results
Experimental: Adult male Balb/c mice (20-23 g) were subjected to caecal ligation and puncture under isoflurane anaesthesia and were randomly grouped (n=5-10 per group) to receive a single LR17 (100 μg in 0.2 mL NaCl 0.9%), scrambled-LR17 ([…] in 0.2 mL NaCl 0.9%), or 0.2 mL NaCl 0.9% i.p. injection. After 24 hours, animals were killed under anaesthesia. Results are mean±SD. p values are *p<0.05, **p<0.01, ***p<0.001 compared with control animals.
(A-B) Adult male Balb/c mice (20-23 g) were subjected to caecal ligation and puncture under isoflurane anaesthesia and were randomly grouped (n=25-40 per group) to receive a LR17, scrambled-LR17, or 0.2 mL NaCl 0.9% i.p. injection at indicated times. Survival was monitored over 1 wk and analyzed by Log Rank test.
Male Balb/c mice (4-6 weeks) were anesthetized with isoflurane. The cecum was exposed through a 1.0 cm abdominal midline incision and subjected to a ligation of the distal half followed by one puncture with a G21 needle. A small amount of stool was expelled from the puncture to ensure patency. The cecum was replaced into the peritoneal cavity and the abdominal incision closed in two layers. After surgery, all mice were injected s.c. with 0.5 mL of 0.9% NaCl solution for fluid resuscitation. The animals were randomly grouped and treated LR17 or LR17-scrambled as control in 250 μL 0.9% NaCl solution and administered i.p. In order to determine the effect of various doses of LR17 at different times, mice were treated with 50, 100 or 200 μg of LR17 at H1 after surgery, or with 3 injections of 100 μg at 2, 6 and 24 hours or with 100 μg in one injection at 24 hours after CLP and then monitored for survival. Five additional animals per group were killed under anaesthesia at 24 h after CLP for the determination of bacterial count and cytokines levels. Peritoneal lavage fluid was obtained using 2 mL RPMI 1640 (EuroBio), and blood was collected by cardiac puncture. Concentrations of plasma cytokines were determined by ELISA (R&Dsystems). For the assessment of bacterial counts, blood and crushed spleen were plated in serial log dilutions on tryptic soy supplemented with 5% sheep blood agar plates. After plating, tryptic soy agar plates were incubated at 37° C. aerobically for 24 h and anaerobically for 48 h. Results are expressed as CFU per ml of blood or per gram of spleen.

[2] = system: TREM-1 ligand (agonist); test: Immunoblot revealed by mouse anti-TREM-1 mAb (TREM-1 agonist); type: binding; settings: FIG. 1A
Description: To determine whether sTLT-1 may specifically bind to the TREM-1 ligand and thus interfere with the TREM-1/TREM-1 ligand interaction, we used a specific TREM-1 agonist known to bind and activate TREM-1, mimicking TREM-1 engagement by its ligand.

[3] = system: male Balb/c mice; test: Caecal ligation and puncture (CLP) polymicrobial sepsis model; type: in vivo, mouse; settings: LR12 in septic mice
[4] = system: human neutrophils; test: Neutrophil phagocytosis and oxidative burst (Phagotest, Bursttest); type: cell-based
Experimental: Data (mean±SD) are representative of 6 different experiments.
The quantitative determination of neutrophil phagocytosis and oxidative burst was performed by flow cytometry using the Phagotest and the Bursttest (Orpegen Pharma, Heidelberg, Germany) following the manufacturers' recommendations. A FITC-labelled opsonized E. coli was used to determine the general phagocytic activity (ingestion of one or more bacteria per cell) and the individual cellular phagocytic activity (number of bacteria per cell). For evaluation of oxidative burst activity, unlabeled opsonized E. coli, fMLP, PMA LPS and activated- or non-activated-platelets (30:1) were used as stimulants and DCFDA as a fluoregenic substrate (Invitrogen) accordingly with manufacturers' instructions.

[5] = system: TREM-1 ligand expressed on resting or thrombin-activated human platelets; test: Flow cytometry binding of FITC-labelled peptides to human platelets; settings: competition with unlabelled substance
Experimental: (B) Flow cytometry analysis of FITC-labelled LR17 (1 or 5 μg/mL) binding to TREM-1 ligand expressed on resting or thrombin-activated (5 UI/mL) human platelets is reversed by co-incubation with unlabelled LR17, sTLT-1 or LP17, a TREM-1 derived peptide.
Acid Citrate Dextrose blood samples were centrifuged (100 g, 10 min) to obtain Platelet-Rich Plasma. PRP was then centrifuged (550 g, 10 min) over a 36% (wt/vol) BSA gradient and platelets collected from the interphase before being washed in Tyrode's salts buffer (Sigma-Aldrich) supplemented with 5 mM EGTA. For activation, platelets were incubated for 30 minutes with 5 U/mL thrombin (Sigma-Aldrich) or 1 μg/mL E. Coli LPS (0111:B4, Sigma-Aldrich) at 37° C. and subsequently fixed with 2% (wt/vol) paraphormaldehyde (PFA, Sigma-Aldrich). Residual PFA was removed by two additional washing steps in Tyrode buffer. Activation was assessed by anti-CD62P (Beckman Coulter).
Isolated cells (neutrophils, monocytes or platelets) were blocked for aspecific binding with 10% human Ig (Sigma-Aldrich) for 1 hour on ice. Cells were incubated with recombinant soluble FITC-labelled TLT-1-peptides, FITC-labelled LP17 (or corresponding FITC-labelled scrambled peptides), PE-labelled anti-TREM-1 mAb (R&Dsystems), CD62P-FITC, CD66b-PE, CD45-PE, CD14-FITC (all from Beckman Coulter)

Molecule: EDAGEY (listed as Homo sapiens) [LR6-2, 6 amino-acids derived from LR17]
protection against polymicrobial sepsis [1]: Protect Mice Against Polymicrobial Sepsis

binding to the TREM-1 ligand (TREM-1 agonist, anti-TREM-1 mAb) [2]: not
Molecule: GAEREVCMDEYGALQDG (listed as Homo sapiens) [LR17-scrambled, control peptide, reference compound]

Molecule: GEYGCM (listed as Homo sapiens) [LR6-3, 6 amino-acids derived from LR17]
protection against polymicrobial sepsis [1]: Protect Mice Against Polymicrobial Sepsis

Molecule: LQEEDA (listed as Homo sapiens) [LR6-1, 6 amino-acids derived from LR17]
protection against polymicrobial sepsis [1]: Protect Mice Against Polymicrobial Sepsis

Molecule: LQEEDAGEYGCM (listed as Homo sapiens) [LR12, N-terminal 12 amino-acids from LR17]
coagulation disorders (platelet count) ([3]; FIG. 7c): significant protection
survival rate ([3]; FIG. 7g): improved survival rate
organ dysfunction (lung histopathology) ([3]; FIG. 7d): significant protection
systemic, broncho-alveolar and organ inflammation ([3]; FIGS. 7a and b): significant protection

binding to the TREM-1 ligand (TREM-1 agonist, anti-TREM-1 mAb) [2]: able to bind the TREM-1 ligand
B1: sTLT-1: soluble TLT-1 (TREM-like transcript 1), recombinant (protein)
chain: QGIVGSLPEVLQAPVGSSILVQCHYRLQDVKAQKVWCRFLPEGCQPLVSSAVDRRAPAGRRTFLTDLGGGLLQVEMVTLQEEDAGEYGCMVDGARGPQILHRVSLNILPPEEEEETHKIGSLAENAFSDPAGSANPLEPSQDEKSIP
neutrophils' phagocytic properties ([4]; E. coli): did not alter
PMA- or fMLP-induced oxidative burst ([4]; not shown): no action
effect of co-incubation on FITC-labelled LP17 binding to platelets [5]: decreased
effect of co-incubation on FITC-labelled LR17 binding to platelets [5]: reversed
